Laboratory results: the supplement of paper PMC10883282

Columns and labels:
Experiment in all cases: relative viability vs DMSO control (72 h) (fraction); higher = more viable cells
A204 = system: A204
How it was run: (§1)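 Sarcoma cell lines were grown in 384-well plates seeded toward 80–90% confluence and exposed 24 h later to serially diluted compound. After 72 h at 37 °C and 5% CO2, with 0.1% DMSO vehicle and a 5 µM positive control on the plates, ATPLite was read. Relative viability, given as percent growth averaged over up to triplicate wells, was rescaled so that 1 is full and 0 is none.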

G401 = system: G401
How it was run: as §1

HS729 = system: HS729
How it was run: as §1

KHOS-240S = system: KHOS-240S
How it was run: as §1

MES-SA = system: MES-SA
How it was run: as §1

SK-ES-1 = system: SK-ES-1
How it was run: as §1

SK-LMS-1 = system: SK-LMS-1
How it was run: as §1

SW1353 = system: SW1353
How it was run: as §1

SW684 = system: SW684
How it was run: as §1

SW872 = system: SW872
How it was run: as §1

SW982 = system: SW982
How it was run: as §1

SYO-1 = system: SYO-1
How it was run: as §1

N#Cc1ccnc(N2C(=O)CC[C@H]2C(=O)N(c2cncc(F)c2)[C@H](C(=O)NC2CC(F)(F)C2)c2ccccc2Cl)c1 [Ivosidenib]
Settings | relative viability
A204, 0.00017 µM | 1.07
A204, 0.00051 µM | 1.03
A204, 0.00152 µM | 1.11
A204, 0.00457 µM | 1.06
A204, 0.01372 µM | 1.04
A204, 0.04115 µM | 1.03
A204, 0.1235 µM | 1.05
A204, 0.3704 µM | 1.015
A204, 1.111 µM | 1.06
A204, 3.333 µM | 1.03
A204, 10 µM | 0.971
G401, 0.00017 µM | 0.926
G401, 0.00051 µM | 0.927
G401, 0.00152 µM | 0.971
G401, 0.00457 µM | 1.01
G401, 0.01372 µM | 0.952
G401, 0.04115 µM | 0.934
G401, 0.1235 µM | 0.99
G401, 0.3704 µM | 0.943
G401, 1.111 µM | 0.958
G401, 3.333 µM | 0.929
G401, 10 µM | 0.896
HS729, 0.00017 µM | 0.966
HS729, 0.00051 µM | 1
HS729, 0.00152 µM | 1.01
HS729, 0.00457 µM | 1.01
HS729, 0.01372 µM | 0.998
HS729, 0.04115 µM | 0.993
HS729, 0.1235 µM | 1.01
HS729, 0.3704 µM | 1
HS729, 1.111 µM | 0.982
HS729, 3.333 µM | 0.949
HS729, 10 µM | 0.96
KHOS-240S, 0.00017 µM | 1.03
KHOS-240S, 0.00051 µM | 1.04
KHOS-240S, 0.00152 µM | 1.04
KHOS-240S, 0.00457 µM | 1.057
KHOS-240S, 0.01372 µM | 1.04
KHOS-240S, 0.04115 µM | 1.046
KHOS-240S, 0.1235 µM | 1.02
KHOS-240S, 0.3704 µM | 1.03
KHOS-240S, 1.111 µM | 1.02
KHOS-240S, 3.333 µM | 1.022
KHOS-240S, 10 µM | 0.998
MES-SA, 0.00017 µM | 0.905
MES-SA, 0.00051 µM | 0.943
MES-SA, 0.00152 µM | 0.932
MES-SA, 0.00457 µM | 0.935
MES-SA, 0.01372 µM | 0.938
MES-SA, 0.04115 µM | 0.929
MES-SA, 0.1235 µM | 0.933
MES-SA, 0.3704 µM | 0.981
MES-SA, 1.111 µM | 0.976
MES-SA, 3.333 µM | 0.925
MES-SA, 10 µM | 0.8939
SK-ES-1, 0.00017 µM | 0.941
SK-ES-1, 0.00051 µM | 0.962
SK-ES-1, 0.00152 µM | 0.984
SK-ES-1, 0.00457 µM | 1.02
SK-ES-1, 0.01372 µM | 0.988
SK-ES-1, 0.04115 µM | 1.01
SK-ES-1, 0.1235 µM | 1
SK-ES-1, 0.3704 µM | 0.965
SK-ES-1, 1.111 µM | 1
SK-ES-1, 3.333 µM | 0.978
SK-ES-1, 10 µM | 0.983
SK-LMS-1, 0.00017 µM | 1.01
SK-LMS-1, 0.00051 µM | 1.01
SK-LMS-1, 0.00152 µM | 1.033
SK-LMS-1, 0.00457 µM | 1.04
SK-LMS-1, 0.01372 µM | 1.04
SK-LMS-1, 0.04115 µM | 1.02
SK-LMS-1, 0.1235 µM | 1.03
SK-LMS-1, 0.3704 µM | 0.968
SK-LMS-1, 1.111 µM | 0.997
SK-LMS-1, 3.333 µM | 0.968
SK-LMS-1, 10 µM | 0.954
SW684, 0.00017 µM | 1.056
SW684, 0.00051 µM | 1.07
SW684, 0.00152 µM | 1.08
SW684, 0.00457 µM | 1.11
SW684, 0.01372 µM | 1.13
SW684, 0.04115 µM | 1.06
SW684, 0.1235 µM | 1.11
SW684, 0.3704 µM | 1.1
SW684, 1.111 µM | 1.1
SW684, 3.333 µM | 1.1
SW684, 10 µM | 1
SW872, 0.00017 µM | 1.03
SW872, 0.00051 µM | 1.04
SW872, 0.00152 µM | 1.04
SW872, 0.00457 µM | 1.052
SW872, 0.01372 µM | 1.06
SW872, 0.04115 µM | 1.03
SW872, 0.1235 µM | 1.03
SW872, 0.3704 µM | 1.04
SW872, 1.111 µM | 1.05
SW872, 3.333 µM | 1.047
SW872, 10 µM | 1.04
SW982, 0.00017 µM | 1.02
SW982, 0.00051 µM | 0.981
SW982, 0.00152 µM | 0.987
SW982, 0.00457 µM | 1
SW982, 0.01372 µM | 0.996
SW982, 0.04115 µM | 1.01
SW982, 0.1235 µM | 0.984
SW982, 0.3704 µM | 0.966
SW982, 1.111 µM | 0.975
SW982, 3.333 µM | 0.982
SW982, 10 µM | 0.971
SW1353, 0.00017 µM | 0.966
SW1353, 0.00051 µM | 0.94
SW1353, 0.00152 µM | 0.976
SW1353, 0.00457 µM | 0.935
SW1353, 0.01372 µM | 0.976
SW1353, 0.04115 µM | 0.972
SW1353, 0.1235 µM | 0.949
SW1353, 0.3704 µM | 0.98
SW1353, 1.111 µM | 0.929
SW1353, 3.333 µM | 0.973
SW1353, 10 µM | 0.972
SYO-1, 0.00017 µM | 1.03
SYO-1, 0.00051 µM | 1.01
SYO-1, 0.00152 µM | 1.07
SYO-1, 0.00457 µM | 1.02
SYO-1, 0.01372 µM | 1.01
SYO-1, 0.04115 µM | 1.01
SYO-1, 0.1235 µM | 1.02
SYO-1, 0.3704 µM | 1.01
SYO-1, 1.111 µM | 1.02
SYO-1, 3.333 µM | 1.01
SYO-1, 10 µM | 1
